Assay results published in publication PMC12490239, “Combining BET inhibition with SMAC mimetics restricts tumor growth and triggers immune surveillance in preclinical cancer models” (Cell Reports Medicine, 2025).

Tests used:
Experiment in all cases: cells
Set-up in all cases: CellTiter-Glo 2.0 luminescence proliferation/viability assay, single agents, human tumour cell line panel
KM12C = conditions: Homo sapiens, KM12C, 96 h; single agent; read-out: IC50 SMACm
Procedure: (§1) The effect of BETi, SMACm alone or in combination cell viability was determined using a 96-h CellTiter-Glo2.0 proliferation assay. Cells were seeded in assay plates and placed at 37°C with 5% CO2 for twenty-four hours before treatment. Compounds were added in triplicate in gradients of increasing concentrations, in case of SMACm ranging between 4.5 nM and 10 μM and in case of BETi between 1.4 nM and 3 μM. DMSO served as control. Cell viability was measured by luminescence analysis using luminescence read on Envision plate readers (PerkinElmer). An additional set of colorectal cancer cell lines was assayed with technical duplicates and experimental triplicates. Cell viability was measured by luminescence analysis using luminescence read on Tecan Plate reader. The effects of drug combinations were analyzed using the Bliss Independence Model.[34] Synergy score was calculated by the average of 3 highest and 3 lowest BLISS Gaps between predicted and measured POC (Percentage of Control) values. To investigate the synergistic interaction between BI 894999 (hereafter, BETi) and BI 891065 (hereafter, SMACm), we evaluated the in vitro anti-tumor effect of the single agents or the combination in a large panel of 151 cancer cell lines of different tissue origin: CRC, gastric cancer, non-small cell lung cancer (NSCLC), and pancreatic carcinoma (Figures 1C–1F). As a mono-agent, SMACm was able to inhibit cell proliferation only in a limited number of tested cell lines (4%, Table S2). Most of the cell lines responded to inhibition by BETi, with sensitivity ranging from 10 to 100 nM (Figure 1C). Bliss Gap analysis, performed to analyze the effect of the BETi+SMACm combination on tumor cell growth (Figures 1D–1F), unveiled potent synergistic activity across the cell models tested (Figure 1E), independent of tumor type (Figure 1F).  Figure 1 The combinatorial effect of BI 894999 and BI 891065 across a panel of human tumor cell lines (A) Selectivity and potency profiles of BI 891065. Top left, structure of BI 891065. Top right, IC50 values for BI 891065 inhibition of cIAP1, cIAP2, and XIAP. Bottom, physicochemical properties of […]. (B) WES (Simple Western System) analysis of cIAP1, cIAP2, and XIAP levels upon treatment of HT-29 cells with indicated concentrations of BI 891065 for 6 h (C) IC50 values determined in cell proliferation assays (n = 151) individually for BETi BI 894999 and SMACm BI 891065. Each point represents a cell line tested. (D) Example of proliferation assay for synergy analysis in LoVo cell line; shown is combination plate map matrix and the cell growth inhibition (CGI) at the indicated concentrations; CGI values < 100%: tumor cell growth, CGI 100%: tumor cell stasis, and CGI > 100%: tumor cell killing. (E) Synergy scores across the tested panel of cell lines obtained using Bliss synergy analysis. (F) Violin plots showing the synergy scores for BETi and SMACm combination across indications. N is the number of cell lines tested in each indication group.

HCC95 = conditions: Homo sapiens, HCC95, 96 h; single agent; read-out: IC50 SMACm
Procedure: as §1

SNU1040 = conditions: 96 h; single agent; read-out: IC50 SMACm
Procedure: as §1

SW48 = conditions: Homo sapiens, SW48, 96 h; single agent; read-out: IC50 SMACm
Procedure: as §1

HRA16 = conditions: 96 h; single agent; read-out: IC50 SMACm
Procedure: as §1

T84 = conditions: Homo sapiens, T84, 96 h; single agent; read-out: IC50 SMACm
Procedure: as §1

SNU1235 = conditions: 96 h; single agent; read-out: IC50 SMACm
Procedure: as §1

C99 = conditions: 96 h; single agent; read-out: IC50 SMACm
Procedure: as §1

NCI-H358 = conditions: Homo sapiens, NCI-H358, 96 h; single agent; read-out: IC50 SMACm
Procedure: as §1

SNU977 = conditions: 96 h; single agent; read-out: IC50 SMACm
Procedure: as §1

HROC374 = conditions: 96 h; single agent; read-out: IC50 SMACm
Procedure: as §1

HUTU-80 = conditions: Homo sapiens, HuTu80, 96 h; single agent; read-out: IC50 SMACm
Procedure: as §1

RKO = conditions: Homo sapiens, RKO, 96 h; single agent; read-out: IC50 SMACm
Procedure: as §1

COLO-741 = conditions: Homo sapiens, COLO-741, 96 h; single agent; read-out: IC50 SMACm
Procedure: as §1

NCI-H2087 = conditions: Homo sapiens, NCI-H2087, 96 h; single agent; read-out: IC50 SMACm
Procedure: as §1

- IC50 (HCC95): 6.09 µM
- IC50 (SNU1040): 3.59 µM
- IC50 (SW48): 5.9 µM
- IC50 (SNU1235): 2.14 µM
- IC50 (NCI-H358): > 10 µM
- IC50 (SNU977): 2.88 µM
- IC50 (COLO-741): 0.831 µM
- IC50 (NCI-H2087): 5.05 µM
Compound: CN[C@@H](C)C(=O)Nc1ccc(-c2c(-c3cccnc3OC)nc3cc(C)ccn23)c(C#Cc2ccc3c(C)nccc3c2)n1 [SMACm, BI 891065]
- IC50 (KM12C): 5.22 µM
- IC50 (HRA16): 3.99 µM
- IC50 (T84): 4.44 µM
- IC50 (C99): 3.8 µM
- IC50 (HROC374): 3.34 µM
- IC50 (HUTU-80): 3.31 µM
- IC50 (RKO): 5.07 µM
